Reference: patent US7011948B2, “Detection of ligand-antiligand complex formation by electromagnetically detectable bulk property measurement” (MDS Sciex, priority 2002, dated 2006)
Entries after “also recorded” stand apart in the source; their conditions may differ. Like-named read-outs stand apart in the source and are kept apart here.

What was measured:
Ribonuclease A (RNase A) = molecular target: T1, Ribonuclease A (RNase A) (Bos taurus, UniProt P61823); assay: Multipole Coupling Spectroscopy (MCS) binding titration of CMP ligands with RNase A; conditions: for binding strength to RNase A in words: summary of ITC and MCS results
T1 construct: purchased Sigma (St. Louis, Mo.) R5503
T1 sequence (P61823 27-150): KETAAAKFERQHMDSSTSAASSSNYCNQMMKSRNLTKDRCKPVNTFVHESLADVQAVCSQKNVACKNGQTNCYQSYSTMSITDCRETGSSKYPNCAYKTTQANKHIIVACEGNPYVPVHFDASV
Excerpt: Given the equation εtot=α+βL0+γg(A0,L0,KD), it can be seen that εtot is a function of L0 and KD (F(L0,KD)). εtot is a measured value and L0 is known. If KD is fixed, εtot can be predicted from L0. Then, KD can be adjusted until the predicted and measured values of εtot are as close as possible according to a nonlinear least squares analysis defined as follows: {(^1L0,^1εtot)|i=1, 2, . . . n} measurements find KD such that • Σ[^1εtot−F(^iLO,KD)]^2 is a minimum.
This formula defines the objective function for this nonlinear least squares problem. The problem is called a least squares problem because the objective function is the sum of the squares of the residuals (differences) between the measurements and the model predictions. The solution is the value of KD that minimizes the objective function. FIG. 7 depicts a plot showing an example of this objective function. There are many ways to minimize the objective function. Any standard function optimization algorithm, such as the steepest descent algorithm, can be used. Some objective function minimization methods take advantage of the particular structure of this objective function, for example the conjugate gradient method and the Levenberg-Marquardt method, and their use may be preferred in many instances. In this way, the strength of the ligand/antiligand bond can be quantified.
Materials. Ribonuclease A, (RNase A, catalogue # R5503)), cytidine 2′-monophosphate free acid (2′-CMP, catalogue # C7137), cytidine 3′-monophosphate free acid (3′-CMP, catalogue # C1133), cytidine 5′-monophosphate free acid (5′-CMP, catalogue # C1131), sodium chloride (catalogue # S7653), magnesium chloride (catalogue # M2670), Bis-Tris free base (catalogue # B7535), and Bis-Tris hydrochloride salt (catalogue # B6032) were purchased from Sigma (St. Louis, Mo.). The surfactant NP-40 (catalogue # 492015) was purchased from Calbiochem (San Diego, Calif.). These reagents were used without further purification. All solutions were prepared using milliQ water. These experiments were performed in a pH 6.0 150 mM BIS-TRIS buffer containing 10 mM sodium chloride, 10 mM magnesium chloride, and 0.005% v/v NP-40. Preparation of Sample Solutions. The protein solution was prepared by dissolving RNase A in the Bis-Tris buffer to give a final concentration of 1 mM protein; no subsequent dialysis was performed. The ligand solutions were prepared by dissolving 2′-CMP, 3′-CMP or 5′-CMP in the 1 mM RNase A solution to give a final concentration of 4 mM ligand. A series of samples which formed the basis of the ligand binding curve were prepared by mixing various ratios of the above two solutions as outlined in Table 1. Multipole Coupling Spectroscopy (MCS). […] The flow cell (a polyimide tube with an 0.0285″ I.D. and an 0.0305″ O.D. from HV Technologies, Trenton, Ga.) was mounted on the top of the coaxial resonating detector such that only the wall of the tubing separated the detector and the fluidic sample. The AFM was used to draw the fluidic samples into the detection region of the flow cell. The network analyzer settings used were S11 reflection, log magnitude, linear frequency sweep in stepped mode, 401 points, IF bandwidth of 30 Hz, power of −5 dBm, and no cable calibration was applied.
To set up the instrument to measure the data of a binding titration, the protein solution was first introduced to the flow cell of the coaxial resonating fixture and the fixture was coupled by adjusting the size of the gap until the desired reflection was achieved (approximately −30 dBm). The co-axial resonator has a sliding mechanism composed of a single dimension translation stage and a mechanical motor (Picomotor Driver from New Focus Inc., San Jose, Calif.) to adjust the gap size separating the pieces of coax such that the desired MCS reflection is achieved. Each of the remaining fluidic samples described in Table 1, below, were sequentially measured. […]

RNase = molecular target: T2, RNase (Bos taurus, UniProt P61823); assay: Isothermal Titration Calorimetry (ITC) binding to RNase
T2 sequence (P61823 27-150): T1 sequence (P61823 27-150)
Excerpt: Table 2, below, provides the chemical structure of each of the three CMP ligands used in this experiment and a comparison of their dissociation constants (KD) binding to RNase as determined by Isothermal Titration Calorimetry (ITC) and Multipole Coupling Spectroscopy (MCS).

RNase A = molecular target: T3, RNase A (Bos taurus, UniProt P61823); assay: Refractive index binding titration of 2′CMP with RNase A; conditions: 1 mM RNase; 150 mM Bis-Tris buffer pH 6; 2′CMP up to 4 mM
T3 construct: purchased Sigma
T3 sequence (P61823 27-150): T1 sequence (P61823 27-150)
Procedure: As verification of the generality of the inventive technique in bulk property situations other than the measurements involving permittivity, an experiment was carried out by measuring refractive index as the bulk property of a test solution. The binding assay used was one of the ones shown in Example 1, namely binding of RNase A to the RNase inhibitor 2′CMP. The refractometer used to measure the refractive index of the samples was a Wyatt Technologies Optilab DSP refractometer, calibrated using sodium chloride solutions as described in the manufacturer's instructions. RNase (Sigma) was dissolved in a buffer containing 150 mM Bis-Tris, 10 mM NaCl, 10 mM MgCl2, 0.005% […], pH 6, to provide 1 mM RNase. A portion of this solution was fed into the reference cell of the refractometer, and the instrument was left standing until the readout had stabilized. The test ligand, 2′CMP, was dissolved to 4 mM in a portion of the 1 mM RNase solution, and a titration was prepared to produce the following concentrations.
Samples were then loaded into the Optilab sample cell using a syringe and measured in the following order: […]
The refractometer was zeroed using a 1 mM RNase solution. […] The refractive index change relative to the reference cell was calculated using the software and plotted against the concentration of 2′CMP.

[1] = 27° C., 1 mM RNase A, pH 6.0 Bis-Tris buffer, 1.3 GHz, vs ligand concentration, read-out: KD from fit of absolute permittivity values (e′ real part of permittivity), FIG. 11A
[2] = 27° C., 1 mM RNase A, pH 6.0 Bis-Tris buffer, vs ligand-to-protein ratio, read-out: KD from fit of change in impedance (Zi, imaginary part of impedance), FIG. 11E
[3] = 27° C., 1 mM RNase A, pH 6.0 Bis-Tris buffer, vs ligand-to-protein ratio, read-out: MCS KD from fit of change in permittivity (e′ real part of permittivity), FIG. 11C
[4] = 27° C., 1 mM RNase A, pH 6.0 Bis-Tris buffer, vs ligand-to-protein ratio

Kd (Ribonuclease A (RNase A); [1]) [µM]	Kd (Ribonuclease A (RNase A); [2]) [µM]	Kd (Ribonuclease A (RNase A); [3]) [µM]	binding strength to RNase A in words (Ribonuclease A (RNase A))	Kd (RNase) [µM]	KD from fit of absolute permittivity values (e′ real part of permittivity), FIG. 11A (Ribonuclease A (RNase A); 27° C., 1 mM RNase A, pH 6.0 Bis-Tris buffer, 1.3 GHz, vs ligand concentration)	KD from fit of change in impedance (Zi, imaginary part of impedance), FIG. 11E (Ribonuclease A (RNase A); [4])	ITC KD (RNase)	Compound	refractive index change vs concentration plot (FIG. 12), binding detection (RNase A)	MCS KD from fit of change in permittivity (e′ real part of permittivity), FIG. 11C (Ribonuclease A (RNase A); [4])
10	11	10	relatively strong binder	6.3				Nc1ccn([C@@H]2O[C@H](CO)[C@@H](O)[C@H]2OP(=O)(O)O)c(=O)n1 [2′-CMP, cytidine 2′-monophosphate free acid]	deviates significantly from linearity, indicating that binding has taken place	
130	75	130	relatively weak binder	75				Nc1ccn([C@@H]2O[C@H](CO)[C@@H](OP(=O)(O)O)[C@H]2O)c(=O)n1 [3′-CMP, cytidine 3′-monophosphate free acid]		
			unmeasurably weak		No suitable curve fit was achieved	No suitable curve fit was achieved	non-binding	Nc1ccn([C@@H]2O[C@H](COP(=O)(O)O)[C@@H](O)[C@H]2O)c(=O)n1 [5′-CMP, cytidine 5′-monophosphate free acid]		No suitable curve fit was achieved; also recorded: non-binding
